Results as given in PubChem BioAssay AID2060484 (Molecular Pharmacology Branch, DTP, NCI, 2025).

Tested on: SUM149PT spheroids with HUVEC/MSC, viability
Assay: Anticancer human tumor SUM149PT cell line growth inhibition [GQUAD];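 note: spheroids exposed to drugs for seven days before readout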;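 for viability, T/C: percent viability relative to DMSO vehicle control taken as 100%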
Conditions: for IC50: curve of first compound; for viability, T/C: stronger effect = lower value
Summary of the method: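 Multi-cell-type spheroids of tumor cells with HUVEC and mesenchymal stem cells, treated with drug combinations. Concentrations descend in half-log steps from near clinical Cmax, or from 10 microM where Cmax is unknown; viability read-out.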

[1] = second compound 0.0316 µM, first compound 0.0316 µM
[2] = second compound 0.0316 µM, first compound 0.1 µM
[3] = second compound 0.0316 µM, first compound 0.316 µM
[4] = second compound 0.0316 µM, first compound 1 µM
[5] = second compound 0.0316 µM, first compound 3.16 µM
[6] = second compound 0.0316 µM, first compound 10 µM
[7] = second compound 0.1 µM, first compound 0.0316 µM
[8] = second compound 0.1 µM, first compound 0.1 µM
[9] = second compound 0.1 µM, first compound 0.316 µM
[10] = second compound 0.1 µM, first compound 1 µM
[11] = second compound 0.1 µM, first compound 3.16 µM
[12] = second compound 0.1 µM, first compound 10 µM
[13] = second compound 0.316 µM, first compound 0.0316 µM
[14] = second compound 0.316 µM, first compound 0.1 µM
[15] = second compound 0.316 µM, first compound 0.316 µM
[16] = second compound 0.316 µM, first compound 1 µM
[17] = second compound 0.316 µM, first compound 3.16 µM
[18] = second compound 0.316 µM, first compound 10 µM
[19] = second compound 1 µM, first compound 0.0316 µM
[20] = second compound 1 µM, first compound 0.1 µM
[21] = second compound 1 µM, first compound 0.316 µM
[22] = second compound 1 µM, first compound 1 µM
[23] = second compound 1 µM, first compound 3.16 µM
[24] = second compound 1 µM, first compound 10 µM
[25] = second compound 3.16 µM, first compound 0.0316 µM
[26] = second compound 3.16 µM, first compound 0.1 µM
[27] = second compound 3.16 µM, first compound 0.316 µM
[28] = second compound 3.16 µM, first compound 1 µM
[29] = second compound 3.16 µM, first compound 3.16 µM
[30] = second compound 3.16 µM, first compound 10 µM
[31] = second compound 10 µM, first compound 0.0316 µM
[32] = second compound 10 µM, first compound 0.1 µM
[33] = second compound 10 µM, first compound 0.316 µM
[34] = second compound 10 µM, first compound 1 µM
[35] = second compound 10 µM, first compound 3.16 µM
[36] = second compound 10 µM, first compound 10 µM

In the case of `C=CCn1c(=O)c2cnc(Nc3ccc(N4CCN(C)CC4)cc3)nc2n1-c1cccc(C(C)(C)O)n1` + Cc1[nH]c2ccc(F)cc2c1-c1nc2c3cccnc3c3ncccc3c2[nH]1, the IC50 (second compound 0.0316 µM) is reported as 188 nM, the IC50 (second compound 0.1 µM) is reported as 192 nM and the IC50 (second compound 0.316 µM) is reported as 191 nM. The IC50 (second compound 1 µM) was 181 nM, the IC50 (second compound 3.16 µM) was 174 nM and the IC50 (second compound 10 µM) was 189 nM. It also gave a viability, T/C [1] of 98.9%, a viability, T/C [2] of 67% and a viability, T/C [3] of 34.8%. It also gave a viability, T/C [4] of 21%, a viability, T/C [5] of 10.4% and a viability, T/C [6] of 7.37%. The viability, T/C [7] was 91.1%, the viability, T/C [8] was 73.5% and the viability, T/C [9] was 30.3%. It also gave a viability, T/C [10] of 21.4%, a viability, T/C [11] of 11.7% and a viability, T/C [12] of 7.7%. The viability, T/C [13] was 94.7%, the viability, T/C [14] was 72.5% and the viability, T/C [15] was 31.1%. For the same molecule, the viability, T/C [16] was 21.9%, the viability, T/C [17] was 10.5% and the viability, T/C [18] was 11.6%. It also gave a viability, T/C [19] of 85.8%, a viability, T/C [20] of 66.1% and a viability, T/C [21] of 33.2%. It also gave a viability, T/C [22] of 22.6%, a viability, T/C [23] of 9.91% and a viability, T/C [24] of 9.92%. For the same molecule, the viability, T/C [25] was 84.2%, the viability, T/C [26] was 66.6% and the viability, T/C [27] was 31%. It also gave a viability, T/C [28] of 20.3%, a viability, T/C [29] of 9.05% and a viability, T/C [30] of 8.88%. It also gave a viability, T/C [31] of 88.7%, a viability, T/C [32] of 66.6% and a viability, T/C [33] of 35.9%. For the same molecule, the viability, T/C [34] was 20.1%, the viability, T/C [35] was 10.6% and the viability, T/C [36] was 9.87%.
In the case of `CC[C@@]1(O)C(=O)OCc2c1cc1n(c2=O)Cc2cc3c(CN(C)C)c(O)ccc3nc2-1` + CN(C)c1ccc(Nc2c3ccc(NC(=O)CCN4CCCC4)cc3nc3cc(NC(=O)CCN4CCCC4)ccc23)cc1, the IC50 (second compound 0.0316 µM) is reported as > 316 nM, the IC50 (second compound 0.1 µM) is reported as > 316 nM and the IC50 (second compound 0.316 µM) is reported as > 316 nM. The IC50 (second compound 1 µM) was 206 nM, the IC50 (second compound 3.16 µM) was 84 nM and the IC50 (second compound 10 µM) was 98.1 nM. The viability, T/C (second compound 0.0316 µM, first compound 0.000999 µM) was 110%, the viability, T/C (second compound 0.0316 µM, first compound 0.00316 µM) was 87.6% and the viability, T/C (second compound 0.0316 µM, first compound 0.00999 µM) was 109%. It also gave a viability, T/C [1] of 82.2%, a viability, T/C (second compound 0.0316 µM, first compound 0.0999 µM) of 55.9% and a viability, T/C [3] of 57%. For the same molecule, the viability, T/C (second compound 0.1 µM, first compound 0.000999 µM) was 102%, the viability, T/C (second compound 0.1 µM, first compound 0.00316 µM) was 102% and the viability, T/C (second compound 0.1 µM, first compound 0.00999 µM) was 103%. It also gave a viability, T/C [7] of 88.4%, a viability, T/C (second compound 0.1 µM, first compound 0.0999 µM) of 56% and a viability, T/C [9] of 57.2%. The viability, T/C (second compound 0.316 µM, first compound 0.000999 µM) was 95.6%, the viability, T/C (second compound 0.316 µM, first compound 0.00316 µM) was 92.1% and the viability, T/C (second compound 0.316 µM, first compound 0.00999 µM) was 90%. For the same molecule, the viability, T/C [13] was 83.6%, the viability, T/C (second compound 0.316 µM, first compound 0.0999 µM) was 51.6% and the viability, T/C [15] was 52.9%. For the same molecule, the viability, T/C (second compound 1 µM, first compound 0.000999 µM) was 87.8%, the viability, T/C (second compound 1 µM, first compound 0.00316 µM) was 88.2% and the viability, T/C (second compound 1 µM, first compound 0.00999 µM) was 80.2%. The viability, T/C [19] was 78.3%, the viability, T/C (second compound 1 µM, first compound 0.0999 µM) was 54% and the viability, T/C [21] was 47.6%. It also gave a viability, T/C (second compound 3.16 µM, first compound 0.000999 µM) of 94.7%, a viability, T/C (second compound 3.16 µM, first compound 0.00316 µM) of 84.4% and a viability, T/C (second compound 3.16 µM, first compound 0.00999 µM) of 102%. For the same molecule, the viability, T/C [25] was 69.7%, the viability, T/C (second compound 3.16 µM, first compound 0.0999 µM) was 47.9% and the viability, T/C [27] was 45.1%. The viability, T/C (second compound 10 µM, first compound 0.000999 µM) was 92.5%, the viability, T/C (second compound 10 µM, first compound 0.00316 µM) was 90% and the viability, T/C (second compound 10 µM, first compound 0.00999 µM) was 86.4%. For the same molecule, the viability, T/C [31] was 74.2%, the viability, T/C (second compound 10 µM, first compound 0.0999 µM) was 48.7% and the viability, T/C [33] was 44.9%.
`Nc1ccn(C2OC(CO)C(O)C2(F)F)c(=O)n1` (stereo unspecified) + CN(C)c1ccc(Nc2c3ccc(NC(=O)CCN4CCCC4)cc3nc3cc(NC(=O)CCN4CCCC4)ccc23)cc1 gave an IC50 (second compound 0.0316 µM) of 110 nM, an IC50 (second compound 0.1 µM) of 173 nM and an IC50 (second compound 0.316 µM) of 128 nM. The IC50 (second compound 1 µM) was 96.5 nM, the IC50 (second compound 3.16 µM) was 62.8 nM and the IC50 (second compound 10 µM) was 42.1 nM. For the same molecule, the viability, T/C [1] was 87.9%, the viability, T/C [2] was 51% and the viability, T/C [3] was 34.6%. The viability, T/C [4] was 27.2%, the viability, T/C [5] was 25.9% and the viability, T/C [6] was 20.8%. The viability, T/C [7] was 80.2%, the viability, T/C [8] was 59.7% and the viability, T/C [9] was 39.6%. It also gave a viability, T/C [10] of 26.7%, a viability, T/C [11] of 23.7% and a viability, T/C [12] of 20.8%. For the same molecule, the viability, T/C [13] was 68.1%, the viability, T/C [14] was 55.3% and the viability, T/C [15] was 34.7%. It also gave a viability, T/C [16] of 26.6%, a viability, T/C [17] of 25.6% and a viability, T/C [18] of 15.8%. The viability, T/C [19] was 65.8%, the viability, T/C [20] was 51.2% and the viability, T/C [21] was 32.7%. It also gave a viability, T/C [22] of 27.9%, a viability, T/C [23] of 21.4% and a viability, T/C [24] of 16.5%. For the same molecule, the viability, T/C [25] was 65.4%, the viability, T/C [26] was 39.8% and the viability, T/C [27] was 24.3%. For the same molecule, the viability, T/C [28] was 21.6%, the viability, T/C [29] was 17.8% and the viability, T/C [30] was 14.8%. It also gave a viability, T/C [31] of 55.1%, a viability, T/C [32] of 35.7% and a viability, T/C [33] of 25%. The viability, T/C [34] was 20.9%, the viability, T/C [35] was 18.8% and the viability, T/C [36] was 13.4%.
